In paper PMC12865225 (Clinical and Translational Science, 2026):
pIC50: −log10 of the molar value.

Columns and labels:
P-gp = target: T1, P-gp (Homo sapiens, UniProt P08183); test: Efflux transport assay in P-gp HEK293 membrane vesicles; type: biochemical; conditions: 5 and 50 µM, 10 min
T1 construct: made in house; host or cells: membrane vesicles from HEK293 cells expressing the transporter
Protocol: Membrane vesicles, 5 μL (7.5 μg of total protein), prepared as previously reported, were aliquoted to wells of a conical‐shaped 96‐well plate. The plate was incubated for 10 min at +37°C before the initiation of transport by adding 25 μL of TS‐buffer (10 mM Tris, 250 mM sucrose, pH adjusted to 7.4 with HEPES) containing magnesium chloride (10 mM final in the reaction), adenosine triphosphate (ATP) or adenosine monophosphate (AMP), 4 mM final in the reaction, and the transporter substrate and inhibitor. Each experiment included triplicate samples for both ATP and AMP samples. The concentrations of rosuvastatin and N‐methyl‐quinidine were 1 μM in the BCRP and P‐gp vesicle inhibition assays, respectively. […] The transport reactions were quenched by adding 200 μL of cold TS‐buffer to each well and transferring the samples to a 96‐multiwell 1.0 μm glass fiber filter plate (Merck Millipore, Darmstadt, Germany) kept under vacuum. Wells were further washed four times with cold TS‐buffer, after which the plate was dried under vacuum. The compounds were eluted from the plate by applying 100 μL of 75% methanol containing 0.1% formic acid to each well and incubating at 250 RPM for 30 min before centrifuging the samples to an analysis plate at 2800 g for 2 min. For the rosuvastatin samples, the elution solvent contained rosuvastin‐d6 as the internal standard. […]

OATP1B1 = target: T2, OATP1B1 (Homo sapiens, UniProt Q9Y6L6); test: OATP1B1 inhibition with fluorescent substrate 2′,7′-dichlorofluorescein in HEK293 cells; type: cell-based; conditions: 1 µM 2′,7′-dichlorofluorescein, 30 min preincubation
T2 construct: expressed in transfected cells; host or cells: HEK293 (recombinant baculovirus-mediated transduction)
T2 sequence (Q9Y6L6 1-691): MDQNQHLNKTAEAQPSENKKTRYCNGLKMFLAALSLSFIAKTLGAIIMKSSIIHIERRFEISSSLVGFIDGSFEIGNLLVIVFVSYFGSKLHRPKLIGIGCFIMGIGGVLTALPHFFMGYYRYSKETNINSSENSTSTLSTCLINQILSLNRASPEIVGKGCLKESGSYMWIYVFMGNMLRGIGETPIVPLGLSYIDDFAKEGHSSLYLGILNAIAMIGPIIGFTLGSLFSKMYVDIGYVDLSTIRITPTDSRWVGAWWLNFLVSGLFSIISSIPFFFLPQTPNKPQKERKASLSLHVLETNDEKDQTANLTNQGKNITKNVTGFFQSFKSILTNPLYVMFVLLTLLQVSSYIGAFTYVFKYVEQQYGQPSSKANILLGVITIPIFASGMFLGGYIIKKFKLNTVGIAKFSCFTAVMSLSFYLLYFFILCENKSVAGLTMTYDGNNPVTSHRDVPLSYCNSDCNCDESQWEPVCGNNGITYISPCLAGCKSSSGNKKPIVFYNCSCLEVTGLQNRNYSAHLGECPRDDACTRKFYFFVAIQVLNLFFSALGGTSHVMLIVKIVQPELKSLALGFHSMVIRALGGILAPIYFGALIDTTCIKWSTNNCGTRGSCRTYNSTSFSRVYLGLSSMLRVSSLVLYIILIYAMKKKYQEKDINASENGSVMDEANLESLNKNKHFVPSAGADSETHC
Protocol: 8- (2- [Fluoresceinyl]aminoethylthio)adenosine- 3', 5'- cyclic monophosphate (8-Fluo-cAMP) was acquired from Biolog Life Science Institute (Bremen, Germany), 4′,5′-dibromofluorescein was acquired from Sigma-Aldrich (St. Louis, MO, USA) and 2′,7′-dichlorofluorescein was acquired from Santa Cruz Biotechnology (Dallas, TX, USA).
Inhibition studies with fluorescent substrates in OATP transduced HEK293 cells The concentrations of fluorescent probe substrates were 1 µM 2′,7′-dichlorofluorescein for OATP1B1, 2.5 µM 8-Fluo-cAMP for OATP1B3 and 1 µM 4′,5′-dibromofluorescein for OATP2B1, and these concentrations were selected to be within or below of previously reported […]
reported linear ranges of transport for these substrate-transporter combinations.1,2,4 8-Fluo-cAMP was dissolved in ultrapure water, while dimethyl sulfoxide (DMSO) was used for all other compounds. […] For the quantification of fluorescent substrates, cells were lysed with 120 µl of lysis solution (1% Triton X-100, 5 mM EDTA, 150 mM sodium chloride and 150 mM TRIC-hydrochloride and adjusted to pH 8 with sodium hydroxide) for 30 min at 300 RPM shaking before transferring 80 µl of samples to a transparent 96-well plate containing 20 µl of 0.5 M sodium hydroxide. […] The plates were measured with a fluorescent plate reader (Varioskan LUX from ThermoFisher Scientific). […]

T1 sequence (P08183 whole entry): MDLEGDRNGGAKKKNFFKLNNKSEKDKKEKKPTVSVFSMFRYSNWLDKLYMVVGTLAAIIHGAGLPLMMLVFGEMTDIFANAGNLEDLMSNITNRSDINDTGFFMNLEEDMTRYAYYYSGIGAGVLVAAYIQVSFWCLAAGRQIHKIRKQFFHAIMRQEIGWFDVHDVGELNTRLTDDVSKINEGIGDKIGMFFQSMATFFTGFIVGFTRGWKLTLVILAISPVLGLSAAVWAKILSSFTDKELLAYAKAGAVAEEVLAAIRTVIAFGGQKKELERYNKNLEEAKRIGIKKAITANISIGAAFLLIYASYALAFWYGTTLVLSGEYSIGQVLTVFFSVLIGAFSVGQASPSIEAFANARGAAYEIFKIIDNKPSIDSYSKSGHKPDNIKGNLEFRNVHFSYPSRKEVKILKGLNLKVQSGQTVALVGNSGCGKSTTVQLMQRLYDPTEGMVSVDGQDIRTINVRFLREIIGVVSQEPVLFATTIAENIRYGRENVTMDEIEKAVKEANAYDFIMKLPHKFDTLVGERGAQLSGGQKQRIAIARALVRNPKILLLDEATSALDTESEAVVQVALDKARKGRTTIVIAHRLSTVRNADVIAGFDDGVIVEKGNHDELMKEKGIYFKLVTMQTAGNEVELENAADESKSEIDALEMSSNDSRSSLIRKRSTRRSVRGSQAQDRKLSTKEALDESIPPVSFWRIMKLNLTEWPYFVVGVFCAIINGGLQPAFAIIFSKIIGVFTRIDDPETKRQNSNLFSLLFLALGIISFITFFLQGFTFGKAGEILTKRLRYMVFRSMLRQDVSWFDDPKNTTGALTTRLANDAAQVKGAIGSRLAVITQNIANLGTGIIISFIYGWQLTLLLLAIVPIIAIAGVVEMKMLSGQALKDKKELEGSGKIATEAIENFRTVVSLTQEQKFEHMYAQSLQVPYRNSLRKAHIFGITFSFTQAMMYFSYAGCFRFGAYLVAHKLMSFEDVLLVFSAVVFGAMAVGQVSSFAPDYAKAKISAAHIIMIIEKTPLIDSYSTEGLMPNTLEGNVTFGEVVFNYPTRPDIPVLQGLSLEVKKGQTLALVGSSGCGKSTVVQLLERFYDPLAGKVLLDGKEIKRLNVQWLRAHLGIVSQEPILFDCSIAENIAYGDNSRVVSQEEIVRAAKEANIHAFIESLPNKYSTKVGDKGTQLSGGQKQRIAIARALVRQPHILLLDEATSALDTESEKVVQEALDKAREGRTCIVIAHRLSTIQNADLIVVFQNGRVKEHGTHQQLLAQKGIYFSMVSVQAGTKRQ

transport by P-gp (P-gp)	IC50 at 5 min (OATP1B1; human, HEK293 cells transduced to express OATP1B1, pH 7.4, probe 2′,7′-dichlorofluorescein 1 µM)	pIC50 (OATP1B1; 5 min)	SMILES
did not transport	3.59 µM	–	Cc1onc(-c2c(Cl)cccc2Cl)c1C(=O)N[C@@H]1C(=O)N2[C@@H]1SC(C)(C)[C@@H]2C(=O)O [Dicloxacillin]
did not transport	–	5.03	Cc1onc(-c2c(F)cccc2Cl)c1C(=O)N[C@@H]1C(=O)N2[C@@H]1SC(C)(C)[C@@H]2C(=O)O [Flucloxacillin]
